Assay [1] addresses T1, human GLP-1R (Homo sapiens, UniProt P43220).
T1 construct: expressed in transfected cells; vector pcDNA5/FRT
The following applies: earlier studies; interpretation may be compromised by adverse effects of compound 2; ref [7]; cited from earlier work. From the text:
Given its physiological roles, the GLP-1R is targeted for treatment of type 2 diabetes. […] Such proteolysis is thought to remove biological activity.

The target in assay [2] is T1, human GLP-1R. Nature of the assay: ERK activation (phospho-ERK Western blot) in HEK-GLP-1R cells. The following applies: compound 2 10 µM, 5 min. Format: cell-based. As to the method: (§1) Concentration-response curves were fitted using GraphPad Prism (GraphPad Software Inc., CA) using a standard four parameter logistic equation. All data are representative of n≥3 or are presented as mean+/±s.e.m., where n = 3 unless otherwise stated. Statistical analysis was by oneway ANOVA and where P<0.05, followed by Bonferroni's or Dunnett's multiple range test as indicated. Alternatively analysis was performed by Student's t-test. Where potency estimates are given these are pEC50 values (−log10 of the molar concentration giving 50% of the maximal response).
On the technique in general: In western blotting, separated proteins are transferred to a membrane and probed.

The target in assay [3] is T2, GLP-1R (native, rat insulinoma cell line INS-1E) (Rattus norvegicus, UniProt P32301).
T2 construct: the rat insulinoma cell line, INS-1E, with native expression of the GLP-1R; endogenous in cells; host or cells: INS-1E rat insulinoma cells (gift of Prof. C.B. Wollheim)
T2 sequence (P32301 22-463): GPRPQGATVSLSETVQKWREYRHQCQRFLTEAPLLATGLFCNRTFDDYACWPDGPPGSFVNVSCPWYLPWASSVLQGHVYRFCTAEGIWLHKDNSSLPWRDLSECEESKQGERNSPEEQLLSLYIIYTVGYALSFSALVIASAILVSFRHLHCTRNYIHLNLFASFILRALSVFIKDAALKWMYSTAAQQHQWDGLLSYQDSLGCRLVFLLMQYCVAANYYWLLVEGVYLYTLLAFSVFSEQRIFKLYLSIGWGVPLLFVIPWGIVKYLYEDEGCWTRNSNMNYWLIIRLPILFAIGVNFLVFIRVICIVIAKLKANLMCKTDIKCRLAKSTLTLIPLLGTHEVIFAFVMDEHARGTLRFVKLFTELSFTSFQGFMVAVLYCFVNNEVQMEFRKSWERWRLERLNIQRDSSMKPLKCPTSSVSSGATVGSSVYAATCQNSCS
The experiment in a line: ERK activation (phospho-ERK Western blot) in INS-1E cells. Format: cell-based. The following applies: single ligands, 5 min; much lower concentrations of GLP-1 7–36 amide required. The procedure:
HEK-Flp-In cells with stable recombinant expression of the human GLP-1R (HEK-GLP-1R) were cultured in DMEM with high glucose supplemented with 10% FBS, 100 µg/ml streptomycin and 100 units/ml penicillin sulphate. These cells were originally generated by transfection of HEK-Flp-In cells (Invitrogen: Paisley, U.K.) with pcDNA5/FRT containing the human GLP-1R. […] INS-1E cells were kindly provided by Prof. C.B. Wollheim of the University of Geneva, Switzerland [19]. These cells were used between passages 65–90 and cultured in RPMI media containing 11.1 mM glucose, 5% heat-inactivated FBS, 100 µg/ml streptomycin, 100 units/ml penicillin sulphate, 100 units/ml neomycin, 50 µM β-mercaptoethanol, 10 mM HEPES and 1 mM sodium pyruvate. All cells were cultured at 37°C in a 5% CO2 humidified atmosphere and passaged at confluence.
as §1

The target of assay [4] is T1, human GLP-1R. The experiment in a line: Intracellular Ca2+ signaling in fluo-4-loaded HEK-GLP-1R cells. Format: cell-based. The procedure:
as §1

The subject of another assay is GLP-1R. The following applies: unclear whether additivity or true potentiation; ref [33]; cited from earlier work.
For a further assay, the system named is β2-adrenoceptors. Nature of the assay: cAMP accumulation via β2-adrenoceptors in HEK-GLP-1R cells. Format: cell-based. As to the method: Ligands or vehicle control (40 µl) were added and reactions terminated after the appropriate times by replacement of the aqueous phase with ice-cold 0.5 M trichloroacetic acid. […] Reactions were terminated as above.
The cAMP was extracted from either intact cell or membrane preparations using a method identical to that for extraction of Ins(1,4,5)P3 [22]. Levels of cAMP were then determined by a competitive radioreceptor assay using binding protein purified from bovine adrenal glands and related to cellular protein assessed by Bradford assay.
All data are mean±/+s.e.m., n = 3–4, *** P<0.001 and ** P<0.01 by Bonferroni's multiple range test. For clarity only differences between ‘numerical’ and ‘co-addition’ conditions are shown.
(Changes in cAMP serve as a functional read-out for many G protein-coupled receptors.)

The test system of a further assay is wild-type HEK293 cells. The experiment in a line: ERK activation in wild-type HEK293 cells. Format: cell-based. The settings on record: data not shown. The procedure: Cells grown to confluence on 24-well plates pre-coated with poly-D-lysine (0.1% w/v) were washed and equilibrated in KHB at 37°C (400 µl). Cells were challenged at 37°C in 400 µl KHB-BSA and reactions terminated by replacement of buffer with 100 µl ice-cold Laemmli sample buffer (62.5 mM Tris-HCl, pH 6.8, 2% w/v SDS, 10% v/v glycerol, 50 mM DTT and 0.1% bromophenol blue). Proteins (∼30 µg) were separated by 12% SDS-PAGE, transferred onto polyvinylidene fluoride membranes, blocked for 1 h in 5% (w/v) skimmed milk powder in TTBS (150 mM NaCl, 50 mM Tris, pH 7.5, 0.1% Tween-20) and incubated overnight at 4°C with anti-phospho-ERK antibody (1∶2000) or anti-S6 antibody (1∶20,000) in 3% BSA in TTBS. Blots were washed (3×10 min) in TTBS and incubated for 1 h with anti-mouse HRP conjugated secondary antibody (1∶1000 in blocking buffer). After washing in TTBS (3×10 min), blots were exposed to ECL detection reagents (Uptima-Interchim, Montlucon, France) according to the manufacturer's guidelines and bands visualised using Kodak Medical X-ray film (Wolf Laboratories Ltd, Pocklington, U.K.). The intensities of the immunoblot bands were determined using ImageJ.

T1 sequence (P43220 24-463): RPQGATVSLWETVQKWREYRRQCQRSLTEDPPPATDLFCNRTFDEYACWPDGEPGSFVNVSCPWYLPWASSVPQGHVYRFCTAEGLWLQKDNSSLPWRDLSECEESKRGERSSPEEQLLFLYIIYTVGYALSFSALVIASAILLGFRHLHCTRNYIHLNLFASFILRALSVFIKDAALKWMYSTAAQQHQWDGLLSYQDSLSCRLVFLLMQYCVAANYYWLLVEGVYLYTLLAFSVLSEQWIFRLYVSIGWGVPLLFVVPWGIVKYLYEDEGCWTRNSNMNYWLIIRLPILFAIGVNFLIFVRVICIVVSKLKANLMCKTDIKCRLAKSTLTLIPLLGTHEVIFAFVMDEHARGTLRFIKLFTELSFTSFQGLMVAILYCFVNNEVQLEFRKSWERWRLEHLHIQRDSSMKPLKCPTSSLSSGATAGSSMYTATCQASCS

Regarding `CC(C)(C)Nc1nc2cc(Cl)c(Cl)cc2nc1S(C)(=O)=O` [compound 2, 6,7-dichloro-2-methylsulfonyl-3-N-tert-butylaminoquinoxaline], on human GLP-1R [1], the “effect on GLP-1 7–36 amide potency (cAMP)” value was “actually reduced GLP-1 7–36 amide potency”. For the same compound, the ERK activation result at human GLP-1R [2] is “response equivalent to the maximally effective concentration of GLP-1 7–36 amide (10 nM)”. In assay [3], the “ERK activation (INS-1E)” value was “robust and approximately equivalent activation of ERK”. Also, the “fluorescence change sensitive to thapsigargin” value at human GLP-1R [4] (compound 2, 10 µM) is “did not cause an appreciable, thapsigargin-sensitive increase in fluorescence”; on human GLP-1R [4] (compound 2, 100 µM, with/without thapsigargin (2 µM, 5 min)) it was “a proportion of the change in fluorescence in response to compound 2 was blocked by thapsigargin”. Also, the “effect on activity of GLP-1 9–36 amide” value with GLP-1R is listed as “may increase the activity of GLP-1 9–36 amide”. For the same compound, the “effect on cAMP generation by the β-adrenoceptor” value in the assay with β2-adrenoceptors (Figure 3D) is reported as “inability of compound 2 to influence cAMP generation”. In addition, the “cAMP accumulation on co-stimulation with isoproterenol and compound 2 versus numerical sum” value with β2-adrenoceptors (isoproterenol (100 µM) + compound 2 (1 µM), IBMX, 5% DMSO) is “only equivalent to the numerical addition of responses to the two ligands when used alone”. The “ERK activation in wild-type HEK293 cells” value in the assay on wild-type HEK293 cells is given as “Neither GLP-1 9–36 amide, GLP-1 7–36 amide nor compound 2 increased ERK activation”.

(Values after paper PMC3477139 (PLoS ONE, 2012).)
